Reference: patent US20100331361A1, “PHARMACEUTICAL COMPOSITION CONTAINING ALPHA-ADRENERGIC RECEPTOR ANTAGONIST AND AN ANTI-MUSCARINIC AGENT AND METHOD OF IMPROVING LOWER URINARY TRACT SYMPTOMS ASSOCIATED WITH PROSTATIC HYPERTROPHY” (ASTELLAS PHARMA INC., priority 2007, published 2010)
Where a name gives a salt, the structure may show the parent alone.

Key:
[1] = system: patients with prostatic hypertrophy accompanied with overactive bladder symptoms; details: cited from earlier work
[2] = system: Male human patients with prostatic hypertrophy who still had symptoms of overactive bladder; test: I-PSS evaluation after four weeks, Single Group vs Combination Group (Example 1); format: in vivo; set-up: key to Scores of voiding symptoms (2) (4) (7) / Scores of voiding symptoms (2) (4) (7), Change / Total scores of I-PSS / Scores of storage symptoms (1) (3) (5) (6) / Scores of storage symptoms (1) (3) (5) (6), Change: summed item scores, each 0-5; higher = worse symptoms
Description: I-PSS is one of the criteria to evaluate the severity of the foregoing lower urinary tract symptoms by scoring responses to the following questions:
(2) During the last month, have you had to urinate again in less than two hours after you last urinated? (3) During the last month, have you experienced interrupted urination? (4) During the last month, have you found it difficult to postpone urination? […] (6) During the last month, have you had to strain to urinate? (7) During the last month, how many times did you typically have to get up to urinate after you went to bed until you got up in the morning?
The indices (1), (3), (5) and (6) evaluate voiding symptoms, and indices (2), (4) and (7) evaluate storage symptoms. Among these, responses to (1)-(6) are scored: 0 if the response was not at all, 1 if fewer than 1 time in 5, 2 if fewer than 1 time in 2, 3 if about 1 time in 2, 4 if more than 1 time in 2, and 5 if almost always. Additionally, the responses to (7) are respectively scored: 0, 1, 2, 3, 4, and 5 if the response was none, 1 time, 2 times, 3 times, 4 times, and 5 times or more.
Male human patients with prostatic hypertrophy who still had symptoms of overactive bladder (urgency, pollakiuria, urinary incontinence and/or nocturia, and the like.) after treatment with an α receptor antagonist for four weeks or longer were allocated for administration to two treatment groups: (1) tamsulosin hydrochloride 0.2 mg (hereinafter referred to as “Single Group”), and (2) tamsulosin hydrochloride 0.2 mg and solifenacin succinate 2.5 mg (hereinafter referred to as “Combination Group”), and then their symptoms were evaluated by I-PSS after four weeks of treatment. In Table 1 since the score of I-PSS becomes greater as the symptom worsens, greater minus change in scores indicates greater efficacy for the symptoms.

[3] = After treatment of 4 weeks, tamsulosin hydrochloride 0.2 mg alone or with solifenacin succinate 2.5 mg
[4] = Before treatment, tamsulosin hydrochloride 0.2 mg alone or with solifenacin succinate 2.5 mg
[5] = Change after 4 weeks, tamsulosin hydrochloride 0.2 mg alone or with solifenacin succinate 2.5 mg

SMILES: CCCOC(C(=O)OC1CCN(C)CC1)(c1ccccc1)c1ccccc1 [Propiverine]
- acute urinary retention (AUR) ([1]; added to doxazosin): no acute AUR was observed
- effect on the urinary flow rate ([1]; added to doxazosin): did not affect

SMILES: CCOc1ccccc1OCCN[C@H](C)Cc1ccc(OC)c(S(N)(=O)=O)c1 [Single, (R)-5-(2-{[2-(2-ethoxyphenoxy)ethyl]amino}propyl-2-methoxybenzene-1-sulfonamide hydrochloride]
- Scores of storage symptoms (1) (3) (5) (6) [2, 3]: 5.8
- Scores of voiding symptoms (2) (4) (7) [2, 3]: 4.2
- Total scores of I-PSS [2, 3]: 10.8
- Total scores of I-PSS ([2]; Before treatment, tamsulosin hydrochloride 0.2 mg alone (Single) or with solifenacin succinate 2.5 mg (Combination)): 11.6
- Scores of storage symptoms (1) (3) (5) (6) [2, 4]: 6.5
- Scores of voiding symptoms (2) (4) (7) [2, 4]: 4.2
- Scores of storage symptoms (1) (3) (5) (6), Change [2, 5]: −0.7
- Scores of voiding symptoms (2) (4) (7), Change [2, 5]: 0.0
- Total scores of I-PSS, Change [2, 5]: −0.8

SMILES: COc1cc2nc(N3CCN(C(=O)C4COc5ccccc5O4)CC3)nc(N)c2cc1OC (centres unmarked) [doxazosin]
- improvement of the storage symptom score ([1]; in vivo): 2.9 points
- improvement of the total I-PSS ([1]; in vivo): 7.3 points
- improvement of the voiding symptom score ([1]; in vivo): 4.5 points
